Measurements: patent US20210317140A1, “Heterocyclic Compounds and Methods of Use” (MEDIVATION TECHNOLOGIES, INC, priority 2013, published 2021)
pIC50: −log10 of the molar value.

Columns and labels:
PI3Kδ = biological target: T1, PI3Kδ (Homo sapiens, UniProt O00329); assay: PI3Kδ kinase assay (HTRF, PIP3 detection); format: biochemical; conditions: for PI3Kδ @ 0.01 μM (% Inh): 0.01 μM compound; for PI3Kδ @ 0.01 μM (% Inh) / PI3Kδ @ 0.1 μM (% Inh) / PI3Kδ @ 1 μM (% Inh): 10 μM ATP; for PI3Kδ @ 0.1 μM (% Inh): 0.1 μM compound; for PI3Kδ @ 1 μM (% Inh): 1 μM compound; for pIC50: 10 dose IC50, 10 μM ATP
T1 construct: purchased Reaction Biology Corporation
T1 sequence (O00329 whole entry): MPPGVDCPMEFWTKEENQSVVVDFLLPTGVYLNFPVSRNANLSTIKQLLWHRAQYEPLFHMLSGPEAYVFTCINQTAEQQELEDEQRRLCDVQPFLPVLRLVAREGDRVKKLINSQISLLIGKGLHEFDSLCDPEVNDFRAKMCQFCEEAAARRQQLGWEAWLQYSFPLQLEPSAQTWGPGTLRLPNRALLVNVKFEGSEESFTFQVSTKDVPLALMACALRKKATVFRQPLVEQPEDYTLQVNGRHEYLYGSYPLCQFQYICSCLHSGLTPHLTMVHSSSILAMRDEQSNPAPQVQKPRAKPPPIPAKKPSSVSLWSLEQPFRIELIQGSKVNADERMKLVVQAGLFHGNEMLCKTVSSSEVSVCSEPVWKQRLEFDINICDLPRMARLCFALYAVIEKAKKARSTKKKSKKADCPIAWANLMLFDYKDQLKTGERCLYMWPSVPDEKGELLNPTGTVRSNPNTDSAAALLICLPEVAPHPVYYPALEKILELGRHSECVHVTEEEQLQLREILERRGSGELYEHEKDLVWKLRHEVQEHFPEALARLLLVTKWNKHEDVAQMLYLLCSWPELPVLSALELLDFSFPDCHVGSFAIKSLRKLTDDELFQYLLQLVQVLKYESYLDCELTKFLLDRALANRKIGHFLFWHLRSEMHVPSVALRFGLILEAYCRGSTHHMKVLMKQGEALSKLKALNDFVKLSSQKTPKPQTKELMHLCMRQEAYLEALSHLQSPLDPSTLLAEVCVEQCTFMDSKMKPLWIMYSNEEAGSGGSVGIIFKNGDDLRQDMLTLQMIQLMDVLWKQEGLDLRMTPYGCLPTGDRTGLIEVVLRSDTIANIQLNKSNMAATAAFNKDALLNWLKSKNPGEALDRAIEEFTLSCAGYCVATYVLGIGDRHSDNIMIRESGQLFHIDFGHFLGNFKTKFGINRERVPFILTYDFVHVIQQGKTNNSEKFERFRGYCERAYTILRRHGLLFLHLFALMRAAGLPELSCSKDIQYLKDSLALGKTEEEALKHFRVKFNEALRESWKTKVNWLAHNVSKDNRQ
T1 sequence (P27986 whole entry partner): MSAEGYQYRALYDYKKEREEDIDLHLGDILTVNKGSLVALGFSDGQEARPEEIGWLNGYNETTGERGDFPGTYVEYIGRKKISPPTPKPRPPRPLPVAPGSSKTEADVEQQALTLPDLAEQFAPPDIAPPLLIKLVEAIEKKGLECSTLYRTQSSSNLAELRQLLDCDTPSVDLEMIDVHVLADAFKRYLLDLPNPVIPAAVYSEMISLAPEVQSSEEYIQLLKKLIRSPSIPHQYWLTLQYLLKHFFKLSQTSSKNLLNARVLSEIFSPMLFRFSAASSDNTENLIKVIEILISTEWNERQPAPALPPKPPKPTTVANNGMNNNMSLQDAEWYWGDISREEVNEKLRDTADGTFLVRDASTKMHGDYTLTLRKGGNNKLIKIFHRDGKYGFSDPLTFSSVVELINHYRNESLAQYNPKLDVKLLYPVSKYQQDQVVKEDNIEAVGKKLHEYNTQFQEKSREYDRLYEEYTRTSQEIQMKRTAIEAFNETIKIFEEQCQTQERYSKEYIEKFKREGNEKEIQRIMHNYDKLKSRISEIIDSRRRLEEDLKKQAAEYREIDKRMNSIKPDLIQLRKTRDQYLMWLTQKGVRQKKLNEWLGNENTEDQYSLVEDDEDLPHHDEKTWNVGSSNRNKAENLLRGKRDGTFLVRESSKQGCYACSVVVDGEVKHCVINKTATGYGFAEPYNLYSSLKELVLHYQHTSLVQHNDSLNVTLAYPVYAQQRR
In short: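 PIP3 formation read by loss of energy transfer as it displaces biotin-PIP3 from a Eu anti-GST/GST-PH/streptavidin-APC complex, calibrated against PIP3 standards.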

BTK = biological target: T2, BTK (Homo sapiens, UniProt Q06187); assay: BTK kinase assay (HotSpot, 33P ATP); format: biochemical; conditions: for BTK @ 0.01 μM (% Inh): 0.01 μM compound; for BTK @ 0.01 μM (% Inh) / BTK @ 0.1 μM (% Inh) / BTK @ 1 μM (% Inh): 10 μM ATP; for BTK @ 0.1 μM (% Inh): 0.1 μM compound; for BTK @ 1 μM (% Inh): 1 μM compound; for pIC50: 10 dose IC50, 10 μM ATP
T2 construct: purchased Reaction Biology Corporation
T2 sequence (Q06187 whole entry): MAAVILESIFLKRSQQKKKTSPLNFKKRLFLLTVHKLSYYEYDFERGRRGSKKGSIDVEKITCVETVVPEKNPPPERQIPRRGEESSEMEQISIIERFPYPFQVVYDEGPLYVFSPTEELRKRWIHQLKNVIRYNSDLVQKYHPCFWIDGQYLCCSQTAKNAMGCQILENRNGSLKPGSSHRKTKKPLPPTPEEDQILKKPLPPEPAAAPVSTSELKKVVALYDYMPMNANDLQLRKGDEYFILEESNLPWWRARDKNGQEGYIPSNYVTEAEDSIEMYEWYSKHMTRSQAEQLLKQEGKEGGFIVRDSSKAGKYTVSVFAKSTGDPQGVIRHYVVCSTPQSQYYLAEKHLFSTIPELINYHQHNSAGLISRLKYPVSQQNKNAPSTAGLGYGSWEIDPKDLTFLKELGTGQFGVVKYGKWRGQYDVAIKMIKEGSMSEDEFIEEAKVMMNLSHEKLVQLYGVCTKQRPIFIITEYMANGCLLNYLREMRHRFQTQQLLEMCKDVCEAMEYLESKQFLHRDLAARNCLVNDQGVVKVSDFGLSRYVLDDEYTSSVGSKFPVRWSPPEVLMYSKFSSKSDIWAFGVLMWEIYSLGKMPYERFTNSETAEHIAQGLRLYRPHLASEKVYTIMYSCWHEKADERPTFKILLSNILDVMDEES
In short: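 In 20 mM Hepes (pH 7.5) with 10 mM MgCl2, 1 mM EGTA, 0.1 mM Na3VO4, 2 mM DTT, 0.02% Brij35, 0.02 mg/mL BSA and 1% DMSO, kinase and substrate were exposed to ten compound doses for 15–20 min.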

CD69+B220+ cells = assay: B cell activation assay (IgD-stimulated splenocytes, CD69+B220+ cells by FACS); format: cell-based; conditions: 100 nM compound, mouse splenocytes, IgD 3 μg/mL, 4 h
Experimental: 1 Female mouse approximately 2 months old was euthanized with CO2 and the spleen removed. The tissue was homogenized with a polished glass microscope slide. The cells were collected in 5 mL complete medium (RPMI+10% FBS+pen/strep), placed in a 15 mL falcon tube and centrifuged at 500×g for 5 min. The supernatant was discarded and the pellet was resuspended in 3 mL of ACK lysis buffer (NH4Cl 0.17M, KHCO3 10 mM, EDTA-Na2 0.1 mM, pH 7.2), incubated at 37° C. for 5 min. 2 mL complete medium was added and the mixture centrifuged at 500×g for 5 min. The supernatant was discarded and the pellet resuspended in 1 mL complete medium. The mixture was passed through a […] cell strainer and collect in 50 mL falcon tube. Enough medium was added to have a total of 10 mL. The cells were counted and seeded in 24 or 48-well plate in 1 mL complete medium at 10^6 cells/mL. The plate was placed in a 37° C. incubator for 15 min. The cells were treated for 30 min at 37° C. with 100 nM test compound dissolved in 100% DMSO. 3 μL IgD (Accurate chemical and scientific corp.) was added at a final concentration of 3 μg/mL and the mixture incubated at 37° C. for 4 h. The cells were collected in 1.5 mL eppendorf tubes, centrifuged at 500×g for 5 min and then resuspended in 100 μL of PBS+2% FBS. The following antibodies were added: α-B220 PE (pharmingen #553090), α-CD69 APC (pharmingen #60689), live/dead fixable aqua dead cell stain kit (life technologies #L34957) all at 1:300, and the mixture incubated for 15 min at 4° C. in the dark. To this was added 900 μL of PBS+2% FBS and the mixture centrifuged at 500×g for 5 min. The supernatant was removed and the pellet resuspended in 300 μL of PBS+2% FBS and mixed well. The mixture was transferred to a cytometer tube. The samples were run in the FACS Canto II cytometer and quantified by the number of CD69+B220+ cells as a percentage of the total number of B220+ alive cells.

| Compound | PI3Kδ @ 0.01 μM (% Inh) (PI3Kδ) | PI3Kδ @ 0.1 μM (% Inh) (PI3Kδ) | BTK @ 0.01 μM (% Inh) (BTK) | BTK @ 0.1 μM (% Inh) (BTK) | PI3Kδ @ 1 μM (% Inh) (PI3Kδ) | pIC50 (PI3Kδ) | BTK @ 1 μM (% Inh) (BTK) | pIC50 (BTK) | CD69 @ 100 nM (% Inh) (CD69+B220+ cells) | CD69 @ 100 nM (% Inh) (CD69+B220+ cells; 0.1 µM) |
| --- | --- | --- | --- | --- | --- | --- | --- | --- | --- | --- |
| Nc1ncnc2c1c(-c1cc(O)c(Cl)cc1Cl)nn2C1Cc2ccccc2C1 [Compound No. 103, 5-[4-amino-1-(2,3-dihydro-1H-inden-2-yl)-1H-pyrazolo[3,4-d]pyrimidin-3-yl]-2,4-dichlorophenol] | – | 72.71 % Inh | – | 47.24 % Inh | 94.52 % Inh | 7.34 | 89.82 % Inh | 6.79 | 25.06 ± 22.54 (n = 5) % Inh | – |
| C=CC(=O)N1CC(n2nc(-c3cc(O)cc(F)c3)c3c(N)ncnc32)Cc2cc(C)ccc21 (single isomer, unassigned) [31a, 1-(3-(4-amino-3-(3-fluoro-5-hydroxyphenyl)-1H-pyrazolo[3,4-d]pyrimidin-1-yl)-6-methyl-3,4-dihydroquinolin-1(2H)-yl)prop-2-en-1-one] | 33.04 % Inh | 68.13 % Inh | 67.39 % Inh | 93.84 % Inh | – | 7.56 | – | 8.02 | – | 15.47 ± 13.75 (n = 8) % Inh |
| COc1cc(-c2nn(C3Cc4ccccc4C3)c3ncnc(N)c23)cc(F)c1F [Compound No. 91, 3-(3,4-difluoro-5-methoxyphenyl)-1-(2,3-dihydro-1H-inden-2-yl)-1H-pyrazolo[3,4-d]pyrimidin-4-amine] | −1.19 % Inh | 19.59 % Inh | 8 % Inh | 33.72 % Inh | – | – | – | – | – | – |
| Nc1ncnc2c1c(-c1ccc(F)c(F)c1)nn2C1Cc2ccccc2C1 [Compound No. 89, 3-(3,4-difluorophenyl)-1-(2,3-dihydro-1H-inden-2-yl)-1H-pyrazolo[3,4-d]pyrimidin-4-amine] | 0.76 % Inh | 17.95 % Inh | 8.84 % Inh | 30.58 % Inh | – | – | – | – | – | – |
| CCCCOc1cc(-c2nn(C3Cc4ccccc4C3)c3ncnc(N)c23)ccc1OC [Compound No. 90, 3-(3-butoxy-4-methoxyphenyl)-1-(2,3-dihydro-1H-inden-2-yl)-1H-pyrazolo[3,4-d]pyrimidin-4-amine] | 9.23 % Inh | 44.39 % Inh | 7.39 % Inh | 6.79 % Inh | – | – | – | – | – | – |
| N#Cc1ccc(-c2nn(C3Cc4ccccc4C3)c3ncnc(N)c23)cc1O [Compound No. 94, 4-[4-amino-1-(2,3-dihydro-1H-inden-2-yl)-1H-pyrazolo[3,4-d]pyrimidin-3-yl]-2-hydroxybenzonitrile] | 29.77 % Inh | 71.5 % Inh | 8.16 % Inh | 22.48 % Inh | – | – | – | – | – | – |
| COc1cncc(-c2nn(C3Cc4ccccc4C3)c3ncnc(N)c23)c1 [Compound No. 61, 1-(2,3-dihydro-1H-inden-2-yl)-3-(5-methoxypyridin-3-yl)-1H-pyrazolo[3,4-d]pyrimidin-4-amine] | – | 32.36 % Inh | – | 16.63 % Inh | 71.04 % Inh | – | 45.41 % Inh | – | – | – |
| COc1cc(-c2nn(C3Cc4ccccc4C3)c3ncnc(N)c23)ccc1N [Compound No. 66, 3-(4-amino-3-methoxyphenyl)-1-(2,3-dihydro-1H-inden-2-yl)-1H-pyrazolo[3,4-d]pyrimidin-4-amine] | – | 17.08 % Inh | – | 69.93 % Inh | 53.69 % Inh | 6.34 | 95.07 % Inh | 7.60 | – | – |

Further lines, with some results ahead:

| PI3Kδ @ 0.01 μM (% Inh) (PI3Kδ) | PI3Kδ @ 0.1 μM (% Inh) (PI3Kδ) | BTK @ 0.01 μM (% Inh) (BTK) | BTK @ 0.1 μM (% Inh) (BTK) | PI3Kδ @ 1 μM (% Inh) (PI3Kδ) | pIC50 (PI3Kδ) | BTK @ 1 μM (% Inh) (BTK) | pIC50 (BTK) | Compound | CD69 @ 100 nM (% Inh) (CD69+B220+ cells) | CD69 @ 100 nM (% Inh) (CD69+B220+ cells; 0.1 µM) |
| --- | --- | --- | --- | --- | --- | --- | --- | --- | --- | --- |
| −1.05 % Inh | 1.17 % Inh | −0.81 % Inh | −0.94 % Inh | – | – | – | – | NCc1cccc(-c2nn(C3Cc4ccccc4C3)c3ncnc(N)c23)c1 [compound 133, 3-[3-(aminomethyl)phenyl]-1-(2,3-dihydro-1H-inden-2-yl)-1H-pyrazolo[3,4-d]pyrimidin-4-amine] | 6.8 ± 14.52 (n = 3) % Inh | – |
| – | 38.16 % Inh | – | 72.07 % Inh | 82.84 % Inh | 6.55 | 94.25 % Inh | 7.26 | Nc1cc(-c2nn(C3Cc4ccccc4C3)c3ncnc(N)c23)cnc1Cl [Compound No. 104, 5-[4-amino-1-(2,3-dihydro-1H-inden-2-yl)-1H-pyrazolo[3,4-d]pyrimidin-3-yl]-2-chloropyridin-3-amine] | 28.78 ± 19.62 (n = 5) % Inh | – |
| 59.11 % Inh | 88.87 % Inh | 1.82 % Inh | −0.78 % Inh | – | – | – | – | Nc1ncnc2c1c(-c1cc(O)c(F)c(C(F)(F)F)c1)nn2C1CCc2ccccc2C1 (stereo not drawn) [compound 123, 5-[4-amino-1-(1,2,3,4-tetrahydronaphthalen-2-yl)-1H-pyrazolo[3,4-d]pyrimidin-3-yl]-2-fluoro-3-(trifluoromethyl)phenol] | 29.22 ± 4.64 (n = 3) % Inh | – |
| – | – | – | – | – | 7.17 | – | 6.25 | COc1ccc(-c2nn(C3CCc4ccccc4C3)c3ncnc(N)c23)cn1 (racemic) [compound 15, 3-(6-methoxypyridin-3-yl)-1-(1,2,3,4-tetrahydronaphthalen-2-yl)-1H-pyrazolo[3,4-d]pyrimidin-4-amine] | −0.75 ± 6.93 (n = 3) % Inh | – |
| 56.4 % Inh | 91.22 % Inh | 19.98 % Inh | 63.94 % Inh | – | – | – | – | Nc1ncnc2c1c(-c1cc(O)c(F)c(F)c1)nn2C1Cc2ccc(F)cc2C1 (stereo not drawn) [compound 128, 5-[4-amino-1-(5-fluoro-2,3-dihydro-1H-inden-2-yl)-1H-pyrazolo[3,4-d]pyrimidin-3-yl]-2,3-difluorophenol] | 49.29 ± 5.74 (n = 3) % Inh | – |
| 22.51 % Inh | 62.27 % Inh | 39.05 % Inh | 80.31 % Inh | – | 7.48 | – | 7.85 | Nc1ncnn2c(C3Cc4ccccc4C3)cc(-c3cc(O)c(F)c(F)c3)c12 [compound 125, 5-[4-amino-7-(2,3-dihydro-1H-inden-2-yl)pyrrolo[2,1-f][1,2,4]triazin-5-yl]-2,3-difluorophenol] | 2.68 ± 2.32 (n = 3) % Inh | – |
| −6.1 % Inh | 56.02 % Inh | 17.28 % Inh | 74.7 % Inh | – | – | – | – | Nc1ncnc2c1c(-c1cc(O)c(F)c(F)c1)c(Cl)n2C1Cc2ccccc2C1 [compound 134, 5-[4-amino-6-chloro-7-(2,3-dihydro-1H-inden-2-yl)-7H-pyrrolo[2,3-d]pyrimidin-5-yl]-2,3-difluorophenol] | – | – |
| – | – | – | – | – | 5.62 | – | 7.16 | Nc1ncnc2c1c(-c1ccc(F)cc1)nn2C1CCc2ccccc2C1 (racemic) [compound 13, 3-(4-fluorophenyl)-1-(1,2,3,4-tetrahydronaphthalen-2-yl)-1H-pyrazolo[3,4-d]pyrimidin-4-amine] | – | – |
